Assay results as given in ChEMBL document CHEMBL1127828, “The discovery of an unusually selective and novel cocaine analog: difluoropine. Synthesis and inhibition of binding at cocaine recognition sites” (J Med Chem, 1994).

Biological target: Sodium-dependent serotonin transporter (Homo sapiens, UniProt P31645)
Experiment: Binding affinity of [3H]citalopram for serotonin transporter in monkey
Parameters: species or system Cercopithecidae

Sequence of Sodium-dependent serotonin transporter (P31645 whole entry): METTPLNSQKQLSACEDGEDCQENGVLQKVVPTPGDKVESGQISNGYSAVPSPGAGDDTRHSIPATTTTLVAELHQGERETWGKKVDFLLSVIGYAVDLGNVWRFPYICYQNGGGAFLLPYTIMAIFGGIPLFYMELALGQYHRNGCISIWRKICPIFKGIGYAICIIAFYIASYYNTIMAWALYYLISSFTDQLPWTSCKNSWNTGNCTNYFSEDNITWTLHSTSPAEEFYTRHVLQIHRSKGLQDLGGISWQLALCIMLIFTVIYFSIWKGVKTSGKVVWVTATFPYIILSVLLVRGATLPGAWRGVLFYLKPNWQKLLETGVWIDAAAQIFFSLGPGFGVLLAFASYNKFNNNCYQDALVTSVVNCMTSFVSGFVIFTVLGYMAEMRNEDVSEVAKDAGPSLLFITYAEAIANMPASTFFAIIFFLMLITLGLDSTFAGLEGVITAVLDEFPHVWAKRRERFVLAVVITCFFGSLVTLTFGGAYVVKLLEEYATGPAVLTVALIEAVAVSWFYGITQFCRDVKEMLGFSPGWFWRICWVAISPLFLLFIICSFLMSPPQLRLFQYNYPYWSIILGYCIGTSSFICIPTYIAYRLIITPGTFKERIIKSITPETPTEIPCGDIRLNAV

Compound	IC50
COC(=O)C1C2CC[C@H](C[C@H]1OC(c1ccc(F)cc1)c1ccc(F)cc1)N2C (stereo in doubt; R-10)	9.15 µM
COC(=O)C1C2CC[C@H](C[C@H]1OC(c1ccc(F)cc1)c1ccc(F)cc1)N2C (stereo in doubt; R-8)	1.98 µM
COC(=O)C1C2CC[C@H](C[C@@H]1OC(c1ccc(F)cc1)c1ccc(F)cc1)N2C (stereo in doubt; R-7)	5.5 µM
COC(=O)C1C2CC[C@H](C[C@H]1OC(c1ccc(F)cc1)c1ccc(F)cc1)N2C (stereo in doubt; S-10)	4.93 µM
COC(=O)C1C2CC[C@H](C[C@H]1OC(c1ccc(F)cc1)c1ccc(F)cc1)N2C (stereo in doubt; S-7)	4.09 µM
COC(=O)[C@@H]1[C@H]2CCC(C[C@H]1OC(c1ccc(F)cc1)c1ccc(F)cc1)N2C	1.83 µM
COC(=O)C1C2CC[C@H](C[C@@H]1OC(c1ccc(F)cc1)c1ccc(F)cc1)N2C (stereo in doubt; R-9)	1.46 µM
COC(=O)C1C2CC[C@H](C[C@@H]1c1ccc(I)cc1)N2C (some centres undefined)	0.00253 µM
COC(=O)[C@@H]1C2CCC(C[C@@H]1OC(c1ccc(F)cc1)c1ccc(F)cc1)N2C (some centres undefined)	3.53 µM
